| melting point | SMILES |
| --- | --- |
| > 300 °C | Cc1c(Cl)ccc2c1NC(=O)C2=NO [Compound 1u, 6-Chloro-7-methylisatin 3-oxime] |
| 286 °C (dec.) | Cc1c(F)ccc2c1NC(=O)C2=NO [Compound 1v, 6-Fluoro-7-methylisatin 3-oxime] |
| 283 to 284 °C | Cc1ccc2c(c1C)NC(=O)C2=NO [Compound 1p, 6,7-Dimethylisatin 3-oxime] |
| 274 to 275 °C | O=C1Nc2cc(Cl)c(Cl)cc2C1=NO [Compound 1q, 5,6-Dichloroisatin 3-oxime] |
| > 200 °C | CN1C(=O)C(=NO)c2ccc(Cl)c(Cl)c21 [Compound 1j, 6,7-Dichloro-1-methylisatin 3-oxime] |
| 268 to 270 °C | COc1c(F)ccc2c1NC(=O)C2=NO [Compound 1w, 6-Fluoro-7-methoxyisatin 3-oxime] |
| 250 to 251 °C | O=C1Nc2ccc(Br)cc2C1=NO [Compound 1a, 5-Bromoisatin 3-oxime] |
| 140 to 142 °C | CN1C(=O)C(=NO)c2c1ccc(Cl)c2Cl [Compound 1d, 4,5-dichloro-1-methylisatin 3-oxime] |
| 263 to 264 °C | O=C1Nc2c(ccc(F)c2F)C1=NO [Compound 1o, 6,7-Difluoroisatin 3-oxime] |
| 232 to 236 °C | CN1C(=O)C(=NO)c2cc(Cl)c(Cl)cc21 [Compound 1b, 5,6-dichloro-1-methylisatin 3-oxime] |

— US6969729B2, “Use of isatin derivatives as ion channel activating agents” (Neurosearch A/S, priority 1998, dated 2005)
